Series [1] concerns the target T1, hIDO-1 (Homo sapiens, UniProt P14902). The experiment in a line: hIDO-1 enzymatic assay. It counts as biochemical. The following applies: mean ± SE of two independent experiments; for IC50: rhIDO-1, L-tryptophan substrate, 37 °C 30 min; for inhibition at 20 µM: 20 µM compound, read-out: Inhibitory Rate at 20 µM (enzymatic).
Series [2] addresses T1, hIDO-1. The experiment in a line: Cell-based assay of IDO-1 activity in HEK 293 cells transfected with pcDNA3.1-hIDO-1. Details: expressed in transfected cells; host or cells: HEK 293. To be noted: HEK 293-hIDO-1 cells, 12-h incubation; mean ± SE of two independent experiments; read-out: Cellular IC50.
Another series deals with IDO-1. Details: method as in PMID 30108982. The following applies: known inhibitors, Figure 1; cited from earlier work.

Each structure is given as a SMILES string. Bounds are passed on as bounds.

The values that follow come from paper PMC6471201, “Discovery of Indoleamine 2,3-Dioxygenase 1 (IDO-1) Inhibitors Based on Ortho-Naphthaquinone-Containing Natural Product” (Molecules, 2019).

T1 sequence (P14902 whole entry): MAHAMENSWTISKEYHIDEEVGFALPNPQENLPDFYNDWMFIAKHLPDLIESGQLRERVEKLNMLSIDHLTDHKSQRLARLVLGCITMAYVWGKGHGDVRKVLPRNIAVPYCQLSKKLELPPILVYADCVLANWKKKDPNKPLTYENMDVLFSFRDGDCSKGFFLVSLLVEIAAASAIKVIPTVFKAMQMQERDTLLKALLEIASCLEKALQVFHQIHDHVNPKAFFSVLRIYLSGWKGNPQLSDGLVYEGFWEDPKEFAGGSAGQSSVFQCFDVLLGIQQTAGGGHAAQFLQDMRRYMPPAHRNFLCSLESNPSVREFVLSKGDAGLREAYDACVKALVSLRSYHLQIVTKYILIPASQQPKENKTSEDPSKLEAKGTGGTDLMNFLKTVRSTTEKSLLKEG

Consider `CCOC(=O)/C=C/C(=O)OC1CCC(C)(C)c2ccc3c(c21)C(=O)C(=O)c1c(C)coc1-3` (centres unmarked) [Compound 7e], for which, at hIDO-1 [1], the midpoint of inhibition, the IC50, lay at 7.47 ± 3.58 µM.

As to `CCC(=O)OC1CCC(C)(C)c2ccc3c(c21)C(=O)C(=O)c1c-3oc(-c2ccccc2)c1C` (centres unmarked) [Compound 7d], at hIDO-1 [1], the inhibition at 20 µM was determined as 21.5 ± 1.1%.

In the case of `Cc1coc2c1C(=O)C(=O)c1c-2ccc2c1CCCC2(C)C` [Compound 6, Tan-IIA, reference compound], on hIDO-1 [1], the inhibition at 20 µM was determined as 23.1 ± 1.6% and the IC50 – broadly, the concentration that gives 50% inhibition – was greater than 20 µM.

For the compound `CCC(=O)OC1CCC(C)(C)c2ccc3c(c21)C(=O)C(=O)c1c-3oc(-c2ccsc2)c1C` (centres unmarked) [Compound 7c], on hIDO-1 [1], the inhibition at 20 µM came to 29.3 ± 2.2%.

On hIDO-1 [1], `CC(=O)OC1CCC(C)(C)c2ccc3c(c21)C(=O)C(=O)c1c(C)coc1-3` (centres unmarked) [Compound 7a] returned an IC50 of 3.72 ± 0.45 µM.

Turning to `Cc1coc2c1C(=O)C(=O)c1c-2ccc2c1C=CCC2(C)C` [Compound 9, 1,6,6-trimethyl-6,7-dihydrophenanthro[1,2-b]furan-10,11-dione], the results for the IC50 at hIDO-1 [2] and in the series on IDO-1 were greater than 10 µM and 4.68 µM, respectively. Moreover, the inhibition at 20 µM on hIDO-1 [1] worked out at 61.2 ± 2.1%.

As for `Cc1coc2c1C(=O)C(=O)c1c-2ccc2c1C=CC(O)C2(C)C` (centres unmarked) [Compound 10, 7-hydroxy-1,6,6-trimethyl-6,7-dihydrophenanthro[1,2-b]furan-10,11-dione], the melting point (in general, the temperature of the solid-liquid transition) was in the range of 185.2 to 188.5 °C. The IC50 on hIDO-1 [2] was greater than 10 µM. At hIDO-1 [1], the midpoint of inhibition, the IC50, lay at 3.1 ± 1.02 µM.

For the compound `Cc1coc2c1C(=O)C(=O)c1c-2ccc2c1C(OC(=O)c1cccs1)CCC2(C)C` (centres unmarked) [Compound 7j], the inhibition at 20 µM at hIDO-1 [1] came to 60.4 ± 3.9%.

`Cc1coc2c1C(=O)C(=O)c1c-2ccc2c1C(OC(=O)c1cnccn1)CCC2(C)C` (centres unmarked) [Compound 7m]: half-maximal inhibition at hIDO-1 [1] (IC50) was put at 4.96 ± 2.02 µM.

The compound `Cc1coc2c1C(=O)C(=O)c1c-2ccc2c1C(O)CCC2(C)C` (centres unmarked) [Compound 8] yielded an IC50 on hIDO-1 [1] of 2.83 ± 0.12 µM.

`Cc1coc2c1C(=O)C(=O)c1c-2ccc2c1C(OC(=O)CO)CCC2(C)C` (centres unmarked) [Compound 7f] displayed an IC50 against hIDO-1 [1] of 2.74 ± 0.1 µM.

Consider `Cc1coc2c1C(=O)C(=O)c1c-2ccc2c1C(OC(=O)C1CCCCC1)CCC2(C)C` (centres unmarked) [Compound 7h], for which, on hIDO-1 [1], the inhibition at 20 µM is 48 ± 3.2%.

Take `Cc1coc2c1C(=O)C(=O)c1c-2ccc2c1C(OC(=O)c1ccccc1)CCC2(C)C` (centres unmarked) [Compound 7i]: the inhibition at 20 µM at hIDO-1 [1] was 54.5 ± 2.3%.

At hIDO-1 [1], `Cc1coc2c1C(=O)C(=O)c1c-2ccc2c1C(OC(=O)c1nccs1)CCC2(C)C` (centres unmarked) [Compound 7l] yielded an IC50 of 5.71 ± 0.47 µM.

`Cc1coc2c1C(=O)C(=O)c1c-2ccc2c1C=CC(=O)C2(C)C` [Compound 11, 1,6,6-trimethylphenanthro[1,2-b]furan-7,10,11(6H)-trione]: the melting point fell in the range of 261.2 to 262.8 °C. The IC50 on hIDO-1 [2] is greater than 10 µM. Inhibition on hIDO-1 [1] was half-maximal at 0.84 ± 0.26 µM (IC50).

Compound `Cc1coc2c1C(=O)C(=O)c1c-2ccc2c1C(OC(=O)C1CC1)CCC2(C)C` (centres unmarked) [Compound 7g] gave an IC50 against hIDO-1 [1] of 7.05 ± 2.46 µM.

Regarding `CC1(C)C=CC(=O)c2c1ccc1c2C(=O)C(=O)c2c(CO)coc2-1` [Compound 15, 1-(hydroxymethyl)-6,6-dimethylphenanthro[1,2-b]furan-9,10,11(6H)-trione], on hIDO-1 [1], the inhibition at 20 µM worked out at 68 ± 8.6% and the IC50 was roughly 20 µM.

Regarding `Cc1coc2c1C(=O)C(=O)c1c-2ccc2c1C(=O)C=CC2(C)C` [Compound 14, 1,6,6-trimethylphenanthro[1,2-b]furan-9,10,11(6H)-trione], the melting point was 158.3 to 160.8 °C. For the same compound, the IC50 on hIDO-1 [2] is greater than 10 µM. Besides, on hIDO-1 [1], the inhibition at 20 µM is 52.7 ± 2.5% and the IC50 is roughly 20 µM.

Turning to `CC1(C)C(=O)C=Cc2c1ccc1c2C(=O)C(=O)c2c(CO)coc2-1` [Compound 12, 1-(hydroxymethyl)-6,6-dimethylphenanthro[1,2-b]furan-7,10,11(6H)-trione], the figures for the IC50 on hIDO-1 [2] and against hIDO-1 [1] were 3.85 ± 0.86 µM and 0.37 ± 0.02 µM, respectively.

On to `CCC(=O)OC1CCC(C)(C)c2ccc3c(c21)C(=O)C(=O)c1c(C)coc1-3` (centres unmarked) [Compound 7b], for which the IC50 against hIDO-1 [1] turned out to be 4.72 ± 0.3 µM.

Regarding `Cc1c(-c2c(C)c(O)c3ccccc3c2O)oc2c1C(=O)C(=O)c1c-2ccc2c1CCCC2(C)C` [Compound 5], the IC50 in the series with IDO-1 was 4.1 µM.

`Cc1coc2c1C(=O)C(=O)c1c-2ccc2c1C(OC(=O)c1ccoc1)CCC2(C)C` (centres unmarked) [Compound 7k] had an IC50 against hIDO-1 [1] of 4.6 ± 2.81 µM.

Consider `Cc1cccc2c3c(ccc12)C1=C(C(=O)C3=O)C(C)CO1` (centres unmarked) [Compound 4], for which, in the series on IDO-1, the IC50 was 1.3 µM.
